Legend:
Format in all cases: in vivo
[1] = test system: ragweed (common ragweed, Ambrosia artemisiifolia); test: Test A1 postemergence, ragweed; conditions: Postemergence
Procedure, shortened: (§1)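 Seeds were first planted into a blend of loam soil and sand and given a preemergence directed soil spray. In parallel, pots of the same soil were sown for postemergence application once plants reached 2 to 10 cm and the one- to two-leaf stage. Both used surfactant-containing non-phytotoxic solvent formulations.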

[2] = test system: corn (Zea mays); test: Test A1 preemergence, corn
Procedure, shortened: as §1

[3] = test system: kochia (Bassia scoparia); test: Test A1 preemergence, kochia
Procedure, shortened: (§2)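 Test compounds were formulated in a non-phytotoxic solvent mixture containing a surfactant. For preemergence, seeds sown in a loam soil–sand blend received a directed soil spray. For postemergence, potted plants in the same soil, 2 to 10 cm tall at the one- to two-leaf stage, were sprayed.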

[4] = test system: Ryegrass, Italian (Italian ryegrass, Lolium multiflorum); test: Test A1 postemergence, Ryegrass, Italian; conditions: Postemergence
Procedure, shortened: (§3)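 Herbicidal response was scored on plants treated either preemergence, by directed spray onto soil of a loam–sand blend after sowing, or postemergence on potted plants at the one- to two-leaf stage, 2–10 cm high. Test chemicals were carried in a non-phytotoxic solvent mix with surfactant.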

[5] = test system: blackgrass (Alopecurus myosuroides); test: Test A1 postemergence, blackgrass; conditions: Postemergence, 0 to 100 scale (0 no effect, 100 complete control)
Procedure, shortened: as §3

[6] = test system: corn (Zea mays); test: Test A1 postemergence, corn; conditions: Postemergence
Procedure, shortened: as §2

[7] = test system: barnyardgrass (Echinochloa crus-galli); test: Test B1 flooded paddy test, barnyardgrass; conditions: 250 g ai/ha, Flood, applied to paddy water, 2-leaf stage, visually evaluated after 10 to 14 days
Text: (§4) A dash (-) response means no test result.

[8] = test system: soybean (Glycine max); test: Test A1 postemergence, soybean; conditions: Postemergence
Procedure, shortened: as §3

[9] = test system: Oat, Wild (wild oat, Avena fatua); test: Test A1 preemergence, Oat, Wild
Procedure, shortened: as §2

[10] = test system: blackgrass (Alopecurus myosuroides); test: Test A1 preemergence, blackgrass
Procedure, shortened: as §2

[11] = test system: goosegrass (Eleusine indica); test: Test A1 postemergence, goosegrass; conditions: Postemergence
Procedure, shortened: as §3

[12] = test system: Ryegrass, Italian (Italian ryegrass, Lolium multiflorum); test: Test A1 preemergence, Ryegrass, Italian
Procedure, shortened: as §2

[13] = test system: wheat (Triticum aestivum); test: Test A1 postemergence, wheat; conditions: Postemergence
Procedure, shortened: as §3

[14] = test system: ducksalad (Heteranthera limosa); test: Test B1 flooded paddy test, ducksalad; conditions: 250 g ai/ha, Flood, applied to paddy water, 2-leaf stage, visually evaluated after 10 to 14 days
Text: as §4

[15] = test system: horseweed (Erigeron canadensis); test: Test A1 postemergence, horseweed; conditions: Postemergence
Procedure, shortened: as §3

[16] = test system: wheat (Triticum aestivum); test: Test A1 preemergence, wheat
Procedure, shortened: as §2

[17] = test system: Oat, Wild (wild oat, Avena fatua); test: Test A1 postemergence, Oat, Wild; conditions: Postemergence
Procedure, shortened: as §1

[18] = test system: Pigweed, Palmer (palmer amaranth, palmer pigweed, Amaranthus palmeri); test: Test A1 preemergence, Pigweed, Palmer
Procedure, shortened: as §2

[19] = test system: kochia (Bassia scoparia); test: Test A1 postemergence, kochia; conditions: Postemergence
Procedure, shortened: as §3

[20] = test system: Foxtail, Giant (giant foxtail, Setaria faberi); test: Test A1 postemergence, Foxtail, Giant; conditions: Postemergence
Procedure, shortened: as §3

[21] = test system: goosegrass (Eleusine indica); test: Test A1 preemergence, goosegrass
Procedure, shortened: as §2

[22] = test system: rice (Oryza sativa); test: Test B1 flooded paddy test, rice; conditions: 250 g ai/ha, Flood, applied to paddy water, 2-leaf stage, visually evaluated after 10 to 14 days
Text: as §4

[23] = test system: Foxtail, Giant (giant foxtail, Setaria faberi); test: Test A1 preemergence, Foxtail, Giant
Procedure, shortened: as §2

[24] = test system: ragweed (common ragweed, Ambrosia artemisiifolia); test: Test A1 preemergence, ragweed
Procedure, shortened: as §2

[25] = test system: Pigweed, Palmer (palmer amaranth, palmer pigweed, Amaranthus palmeri); test: Test A1 postemergence, Pigweed, Palmer; conditions: Postemergence
Procedure, shortened: as §1

[26] = test system: soybean (Glycine max); test: Test A1 preemergence, soybean
Procedure, shortened: as §2

[27] = test system: galium (catchweed bedstraw, Galium aparine); test: Test A1 postemergence, galium; conditions: Postemergence
Procedure, shortened: as §3

[28] = 31 g ai/ha, 0 to 100 scale (0 no effect, 100 complete control), 10 days
[29] = 31 g ai/ha, 0 to 100 scale (0 no effect, 100 complete control)
[30] = 125 g ai/ha, 0 to 100 scale, 0 no effect, 100 complete control

With Cc1c(C(=O)N2CCC(Cl)CC2)cc(N(COC(=O)C(C)(C)C)S(=O)(=O)C(F)(F)F)c(C)c1C [Compound 359] the “Plant response rating, Ragweed” value [1, 28] was 30, the “Plant response rating, Ragweed” value ([1]; 125 g ai/ha, 0 to 100 scale) was 70 and the “Plant response rating, Corn” value [2, 29] was 0. For the same compound, the “Plant response rating, Corn” value [2, 30] was 0, the “Plant response rating, Kochia” value [3, 29] was 0 and the “Plant response rating, Kochia” value [3, 30] was 0. For the same compound, the “Plant response rating, Ryegrass, Italian” value [4, 28] was 0, the “Plant response rating, Ryegrass, Italian” value ([4]; 125 g ai/ha, 0 to 100 scale) was 0 and the “Plant response rating, Blackgrass” value ([5]; 31 g ai/ha, 10 days) was 0. The “Plant response rating, Blackgrass” value ([5]; 125 g ai/ha) was 0, the “Plant response rating, Corn” value [6, 28] was 0 and the “Plant response rating, Corn” value ([6]; 125 g ai/ha, 0 to 100 scale) was 0. The “Plant response rating, Barnyardgrass (0 to 100 scale, 0 is no effect, 100 is complete control)” value [7] was 95, the “Plant response rating, Soybean” value [8, 28] was 50 and the “Plant response rating, Soybean” value ([8]; 125 g ai/ha, 0 to 100 scale) was 60. For the same compound, the “Plant response rating, Oat, Wild” value [9, 29] was 0, the “Plant response rating, Oat, Wild” value [9, 30] was 0 and the “Plant response rating, Blackgrass” value [10, 29] was 0. For the same compound, the “Plant response rating, Blackgrass” value [10, 30] was 0, the “Plant response rating, Goosegrass” value [11, 28] was 0 and the “Plant response rating, Goosegrass” value ([11]; 125 g ai/ha, 0 to 100 scale) was 20. For the same compound, the “Plant response rating, Ryegrass, Italian” value [12, 29] was 0, the “Plant response rating, Ryegrass, Italian” value [12, 30] was 0 and the “Plant response rating, Wheat” value [13, 28] was 0. For the same compound, the “Plant response rating, Wheat” value ([13]; 125 g ai/ha, 0 to 100 scale) was 30, the “Plant response rating, Ducksalad (0 to 100 scale, 0 is no effect, 100 is complete control)” value [14] was 25 and the “Plant response rating, Horseweed” value [15, 28] was 50. The “Plant response rating, Horseweed” value ([15]; 125 g ai/ha, 0 to 100 scale) was 80, the “Plant response rating, Wheat” value [16, 29] was 0 and the “Plant response rating, Wheat” value [16, 30] was 0. For the same compound, the “Plant response rating, Oat, Wild” value [17, 28] was 0, the “Plant response rating, Oat, Wild” value ([17]; 125 g ai/ha, 0 to 100 scale) was 0 and the “Plant response rating, Pigweed, Palmer” value [18, 29] was 0. The “Plant response rating, Pigweed, Palmer” value [18, 30] was 20, the “Plant response rating, Kochia” value [19, 28] was 30 and the “Plant response rating, Kochia” value ([19]; 125 g ai/ha, 0 to 100 scale) was 40. The “Plant response rating, Foxtail, Giant” value [20, 28] was 0, the “Plant response rating, Foxtail, Giant” value ([20]; 125 g ai/ha, 0 to 100 scale) was 60 and the “Plant response rating, Goosegrass” value [21, 29] was 0. For the same compound, the “Plant response rating, Goosegrass” value [21, 30] was 90, the “Plant response rating, Rice (0 to 100 scale, 0 is no effect, 100 is complete control)” value [22] was 15 and the “Plant response rating, Foxtail, Giant” value [23, 29] was 0. For the same compound, the “Plant response rating, Foxtail, Giant” value [23, 30] was 90, the “Plant response rating, Ragweed” value [24, 29] was 0 and the “Plant response rating, Ragweed” value [24, 30] was 80. For the same compound, the “Plant response rating, Pigweed, Palmer” value [25, 28] was 0, the “Plant response rating, Pigweed, Palmer” value ([25]; 125 g ai/ha, 0 to 100 scale) was 20 and the “Plant response rating, Soybean” value [26, 29] was 0. For the same compound, the “Plant response rating, Soybean” value [26, 30] was 30, the “Plant response rating, Galium” value [27, 28] was 50 and the “Plant response rating, Galium” value ([27]; 125 g ai/ha, 0 to 100 scale) was 80.
